For 7 compounds, EC50 results are on record in US8883965B2, “Compounds” (Ferring B.V., priority 2006, dated 2014).

The target in the test is T1, hV1a receptor (Homo sapiens, UniProt P37288).
T1 construct: expressed in transfected cells; host or cells: HEK-293
Description: In vitro receptor assay: transcriptional reporter (luciferase) assay of agonist activity in HEK-293 cells transiently transfected with hV1a receptor. In kind it is cell-based. As to conditions: hV1a receptor in HEK-293 cells, 5 hours exposure, geometric mean of at least three independent experiments, nanomol/L, read-out: EC50 (median effective concentration). As to the method:
Agonist activity of compounds on the hV1a receptor was determined in a transcriptional reporter assay by transiently transfecting a hV1a receptor expression DNA into HEK-293 cells in concert with a reporter DNA containing intracellular calcium responsive promoter elements regulating expression of firefly luciferase. See Boss, V., Talpade, D. J., Murphy, T. J. J. Biol. Chem. 1996, May 3; 271(18), 10429-10432 for further guidance on this assay.
The EC50 value given is the geometric mean expressed in nanomol/L (nM).

Positions of bridges follow the written chain, without caps; N, C: chain ends. Non-standard residues stand in square brackets, D forms with d. Residues, ends and D or L forms follow the SMILES beside them. Ala(cPent) = N[C@@H](CC1CCCC1)C(=O)O; Orn(iPr) = CC(C)NCCC[C@H](N)C(=O)O; Cha = N[C@@H](CC1CCCCC1)C(=O)O; Orn = NCCC[C@H](N)C(=O)O; Dab = NCC[C@H](N)C(=O)O; Ac4c = NC1(C(=O)O)CCC1

T1 sequence (P37288 whole entry): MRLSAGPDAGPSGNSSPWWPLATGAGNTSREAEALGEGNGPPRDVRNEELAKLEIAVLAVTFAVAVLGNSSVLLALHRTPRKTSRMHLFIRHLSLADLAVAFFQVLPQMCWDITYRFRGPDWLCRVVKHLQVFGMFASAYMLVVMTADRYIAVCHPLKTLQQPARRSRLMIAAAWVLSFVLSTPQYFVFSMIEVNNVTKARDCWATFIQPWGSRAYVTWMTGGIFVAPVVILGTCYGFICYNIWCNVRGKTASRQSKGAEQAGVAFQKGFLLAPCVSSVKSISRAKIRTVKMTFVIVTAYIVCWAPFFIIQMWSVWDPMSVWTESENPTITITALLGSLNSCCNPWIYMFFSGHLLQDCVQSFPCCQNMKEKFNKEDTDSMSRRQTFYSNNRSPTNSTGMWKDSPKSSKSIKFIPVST

On to `CC[C@H](C)[C@@H]1NC(=O)[C@H](CC2CCCC2)NC(=O)[C@@H](N)CSSC[C@@H](C(=O)N2CCC[C@H]2C(=O)N[C@@H](CCN)C(=O)NCC(N)=O)NC(=O)[C@H](CC(N)=O)NC(=O)[C@H](CC(N)=O)NC1=O` [compound 10] (H-C[Ala(cPent)]INNCP[Dab]G-NH2; disulfide 1-6), for which the EC50 is 17.8 nM. As to `CC[C@H](C)[C@@H]1NC(=O)[C@H](CC2CCCCC2)NC(=O)[C@@H](N)CSSC[C@@H](C(=O)N2CCC[C@H]2C(=O)N[C@@H](CCCNC(C)C)C(=O)NCC(N)=O)NC(=O)[C@H](CC(N)=O)NC(=O)[C@H](CC(N)=O)NC1=O` [compound 4, [Cha^2, Asn^4, Orn(i-Pr)^6]VT] (H-C[Cha]INNCP[Orn(iPr)]G-NH2; disulfide 1-6), the EC50 amounted to 0.75 nM. As for `NCCCC[C@H](NC(=O)[C@@H]1CCCN1C(=O)[C@@H]1CSSC[C@H](NC(=O)CNC(=O)CNC(=O)CN)C(=O)N[C@@H](Cc2ccc(O)cc2)C(=O)N[C@@H](Cc2ccccc2)C(=O)N[C@@H](CCC(N)=O)C(=O)N[C@@H](CC(N)=O)C(=O)N1)C(=O)NCC(N)=O` [terlipressin, reference compound] (H-GGGCYFQNCPKG-NH2; disulfide 4-9), the EC50 is 82.1 nM.

Consider `CC[C@H](C)[C@@H]1NC(=O)[C@H](CC2CCCCC2)NC(=O)[C@@H](N)CSSC[C@@H](C(=O)N2CCC[C@H]2C(=O)N[C@@H](CCCN)C(=O)NCC(N)=O)NC(=O)[C@H](CC(N)=O)NC(=O)[C@H](CC(N)=O)NC1=O` [compound 11] (H-C[Cha]INNCP[Orn]G-NH2; disulfide 1-6), for which the EC50 is 9.93 nM. In the case of `CC[C@H](C)[C@@H]1NC(=O)C2(CCC2)NC(=O)[C@@H](N)CSSC[C@@H](C(=O)N2CCC[C@H]2C(=O)N[C@@H](CCN)C(=O)NCC(N)=O)NC(=O)[C@H](CC(N)=O)NC(=O)[C@H](CCC(N)=O)NC1=O` [compound 3, [AcBuc^2, Dbu^8]VT] (H-C[Ac4c]IQNCP[Dab]G-NH2; disulfide 1-6), the EC50 was 0.94 nM. `CC[C@H](C)[C@@H]1NC(=O)[C@H](CC2CCCCC2)NC(=O)[C@@H](N)CSSC[C@@H](C(=O)N2CCC[C@H]2C(=O)N[C@@H](CCN)C(=O)NCC(N)=O)NC(=O)[C@H](CC(N)=O)NC(=O)[C@H](CCC(N)=O)NC1=O` [compound 1] (H-C[Cha]IQNCP[Dab]G-NH2; disulfide 1-6; N-terminus and C-terminus assumed): the EC50 amounted to 0.27 nM. For `CC[C@H](C)[C@@H]1NC(=O)[C@H](CC2CCCC2)NC(=O)[C@@H](N)CSSC[C@@H](C(=O)N2CCC[C@H]2C(=O)N[C@@H](CCN)C(=O)NCC(N)=O)NC(=O)[C@H](CC(N)=O)NC(=O)[C@H](CCC(N)=O)NC1=O` [compound 2] (H-C[Ala(cPent)]IQNCP[Dab]G-NH2; disulfide 1-6) the value was 0.8 nM.
